Reference: US20240197603A1, “METHODS AND COMPOSITIONS FOR TREATING HYPERPIGMENTATION DISORDERS” (INSERM (INSTITUT NATIONAL DE LA SANTÉ ET DE LA RECHERCHE …, priority 2021, published 2024)

Tests used:
[1] = tested on: Phototype VI Reconstructed Human Pigmented Epidermis
Experimental: Phototype VI Reconstructed Human Pigmented Epidermis (Sterlab, France) were treated with BCH or vehicle for 7 days. 10 μm cryosections were used to visualize melanin using Fontana-Masson stain kit (Interchim, France). Images were taken with a Nikon microscope and a 20× lens. Melanin content was quantified after solubilization of epidermis in Solvable® solution (PerkinElmer, France), and melanin content was quantified as described above.

tyrosinase [2] = target: T1, tyrosinase (Mus musculus, UniProt P11344); assay: DOPA oxidase assay, agent added directly in cell lysates; assay type: biochemical; parameters: when added directly in cell lysates during the DOPA oxidase assay; endogenous in cells; B16F10 by context); conditions: during the DOPA oxidase assay
T1 sequence (P11344 19-533): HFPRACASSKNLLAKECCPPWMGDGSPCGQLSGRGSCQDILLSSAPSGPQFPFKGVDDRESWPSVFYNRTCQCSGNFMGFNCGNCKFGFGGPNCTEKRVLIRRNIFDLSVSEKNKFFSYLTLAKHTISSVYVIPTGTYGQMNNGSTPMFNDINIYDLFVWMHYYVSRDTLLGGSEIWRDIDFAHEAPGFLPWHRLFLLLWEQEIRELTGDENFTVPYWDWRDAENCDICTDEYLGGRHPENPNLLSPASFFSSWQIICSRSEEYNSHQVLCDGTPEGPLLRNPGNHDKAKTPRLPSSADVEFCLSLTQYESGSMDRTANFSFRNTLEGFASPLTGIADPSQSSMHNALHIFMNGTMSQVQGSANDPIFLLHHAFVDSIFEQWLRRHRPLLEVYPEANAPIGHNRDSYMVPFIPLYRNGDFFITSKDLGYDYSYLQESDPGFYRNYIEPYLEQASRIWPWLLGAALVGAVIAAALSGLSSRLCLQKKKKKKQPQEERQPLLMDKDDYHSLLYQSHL
Experimental: (§1) Proteins were resuspended in 0.1M Sodium Phosphate pH 6.8, supplemented with 5 mM L-DOPA. After incubation for 1 hour at 37° C., optical density was read at 475 nm.

B16F10 cells [3] = assay: Melanin content in B16F10 cells; assay type: cell-based, Mouse
Experimental: (§2) Mouse B16F10 and Human 501Mel melanoma cells were cultured in Dulbecco's modified Eagle's medium (DMEM) supplemented with 7% Fetal Bovine Serum and 1% Penicillin/Streptomycin. Human MNT1 melanoma cells were cultured as described (Yasumoto et al., 2004). Normal Human Melanocytes were isolated from foreskin obtained after phimosis surgery. Patient consent was not required because French laws consider tissue left over from postectomy as discarded material. Melanocytes were cultured in MCDB medium as described (Bonet et al., 2017). Cells were tested every 4 weeks for […] presence. […] Cells were transfected with 50 nM siRNAs to SLC7A5, MITF or control siRNAs (ON-TARGETplus, Dharmacon) using HiPerfect transfection reagent (Qiagen, France). When indicated, Forskolin (20 μM) and IBMX (100 μM) were added to induce pigmentation on B16F10 cells. 48 hours later, medium was removed, and cells were used for western blot, quantitative PCR, melanin content analyses, immunofluorescence or brightfield imaging. Cells were detached with 0.05% Trypsin-EDTA solution (Thermo Scientific, France) and solubilized in NaOH 0.5N. Optical density was measured at 405 nm using melanin standard as a reference. Melanin content was normalized to the protein content.

B16F10 cells [4] = assay: Western blot of protein expression in B16F10 cells; assay type: cell-based, Mouse
Experimental: Proteins were analyzed by SDS-PAGE and transferred on PVDF membranes (Sigma, France). The antibodies used were as follow: beta-actin (ab8226), MITF (ab12039) and Tyrosinase (ab738) from Abcam, Rab27a (#69295) and HSP90 (#4874) from Cell Signaling Technologies, SLC7A5 (sc-374232) and TYRPI (sc-166857) from Santa Cruz. Signals were detected with horseradish peroxidase conjugated secondary antibodies using ECL detection kit and quantified by digital imaging (Fuji LAS4000).

[5] = tested on: MNT1 human melanoma cells; assay: Melanin production in MNT1 human melanoma cells; assay type: cell-based
Experimental: as §2, with “were” for “were transfected with 50 nM siRNAs to SLC7A5, MITF or control siRNAs (ON-TARGETplus, Dharmacon) using HiPerfect transfection reagent (Qiagen, France). When indicated, Forskolin (20 μM) and IBMX (100 μM) were added to induce pigmentation on B16F10 cells. 48 hours later, medium was removed, and cells were used for western blot, quantitative PCR, melanin content analyses, immunofluorescence or brightfield imaging. Cells were”

tyrosinase [6] = target: T1, tyrosinase; assay: Tyrosinase (L-DOPA) activity after treatment of B16F10 cells; assay type: cell-based; parameters: endogenous in cells; host or cells: B16F10 melanoma cells; conditions: B16F10 cells treated at 10 mM
Experimental: as §1

[7] = tested on: normal human melanocytes (NHM); assay: Melanin production in normal human melanocytes; assay type: cell-based; conditions: pigmented normal human melanocytes
Experimental: as §2, with “were” for “were transfected with 50 nM siRNAs to SLC7A5, MITF or control siRNAs (ON-TARGETplus, Dharmacon) using HiPerfect transfection reagent (Qiagen, France). When indicated, Forskolin (20 μM) and IBMX (100 μM) were added to induce pigmentation on B16F10 cells. 48 hours later, medium was removed, and cells were used for western blot, quantitative PCR, melanin content analyses, immunofluorescence or brightfield imaging. Cells were”

B16F10 cells [8] = assay: Cell viability / proliferation of B16F10 cells (CellTiter Aqueous One); assay type: cell-based, Mouse
Experimental: Mouse B16F10 and Human 501Mel melanoma cells were cultured in Dulbecco's modified Eagle's medium (DMEM) supplemented with 7% Fetal Bovine Serum and 1% Penicillin/Streptomycin. Human MNT1 melanoma cells were cultured as described (Yasumoto et al., 2004). Normal Human Melanocytes were isolated from foreskin obtained after phimosis surgery. Patient consent was not required because French laws consider tissue left over from postectomy as discarded material. Melanocytes were cultured in MCDB medium as described (Bonet et al., 2017). Cells were tested every 4 weeks for […] presence. […] Cell viability was evaluated using CellTiter Aqueous One Solution Cell Proliferation Assay (Promega, France) as recommended by the supplier.

tyrosinase activity, added directly in cell lysates (tyrosinase [2]) | tyrosinase activity after treatment of cells (tyrosinase [6]) | Compound | epidermis structure and keratinisation [1] | melanin content of reconstructed epidermis ([1]; treated for 7 days) | pigmentation of reconstructed epidermis (macroscopic, bright field images) ([1]; treated for 7 days) | pigmented melanocytes in epidermis sections (Fontana Masson staining) ([1]; treated for 7 days) | inhibition of melanin production (B16F10 cells [3]; B16F10 cells, BCH at 5 mM) | inhibition of melanin production (B16F10 cells [3]; B16F10 cells, BCH at 10 mM) | Slc7a5 expression (B16F10 cells [4]; Western blot, B16F10 cells) | Tyrosinase or Rab27a expression (B16F10 cells [4]; Western blot, B16F10 cells) | Tyrp1 expression (B16F10 cells [4]; Western blot, B16F10 cells) | conversion of LC3-I to LC3-II (autophagy) (B16F10 cells [4]; at 5 and 10 mM) | melanin production [5] | melanin production [7] | cell proliferation (B16F10 cells [8]; JPH203 at 10 and 50 μM) | inhibition of pigmentation (melanin content) (B16F10 cells [3]; B16F10 cells, JPH203 at 10 and 50 μM, FIG. 2) | cell proliferation (B16F10 cells [8]; doses of Kojic acid that inhibit melanogenesis) | inhibition at 1000 µM (B16F10 cells [3]; Mus musculus, B16-F10)
does not inhibit tyrosinase activity | did not | NC1(C(=O)O)CC2CCC1C2 (stereo not shown) [BCH] | without affecting epidermis structure or keratinisation | statistically significant decrease in melanin content | inhibited pigmentation | absence of pigmented melanocytes | 25% | 60% | did not affect Slc7a5 expression | not affected consistently | dose-dependent increase | induced a conversion of LC3-I to LC3-II | significantly decreased melanin production | significantly decreased melanin production |  |  |  | 
 |  | Nc1cc(COc2c(Cl)cc(C[C@H](N)C(=O)O)cc2Cl)c2oc(-c3ccccc3)nc2c1 [JPH203, O-[(5-amino-2-phenyl-7-benzoxazolyl)methyl]-3,5-dichloro-L-tyrosine] |  |  | strong inhibition of pigmentation |  |  |  |  |  |  |  |  |  | did not inhibit cell proliferation | efficiently inhibited pigmentation |  | 
 |  | O=c1cc(CO)occ1O [Kojic Acid] |  |  |  |  |  |  |  |  |  |  |  |  |  |  | did not affect cell proliferation | 60%
